The values that follow come from US20250282799A1, “SUBSTITUTED PYRIDO[4,3-d]PYRIMIDINES AS KRAS MODULATORS” (Alterome Therapeutics, Inc., priority 2023, published 2025).

The term IC50 denotes the concentration that gives 50% inhibition.

In the assay the test system is KRAS G12V dependent lung adenocarcinoma cell line, NCI-H441. Briefly: Cellular pERK (Thr202/Tyr204) FRET/HTRF assay. Format: cell-based. As to conditions: Homo sapiens, NCI-H441, cellular pERK (Thr202/Tyr204) HTRF, NCI-H441 cells. The procedure, abridged: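 Read-out is a wash-free FRET sandwich immunoassay for endogenous ERK1/2 phosphorylated on Thr202/Tyr204. Signal was measured in NCI-H441 lung adenocarcinoma cells after 1 hr compound exposure at 37 °C. IC50 values come from fitted concentration-response curves.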
For `[2H]C([2H])(Oc1nc(N2CCOC[C@H]3[C@H](F)[C@H]32)c2cnc(-c3cncc4ccc(F)c(OCF)c34)c(F)c2n1)[C@@]12CCCN1C[C@H](F)C2` [Example 126, (1S,7S,8S)-8-Fluoro-2-(8-fluoro-7-(6-fluoro-5-(fluoromethoxy)isoquinolin-4-yl)-2-(((2R,7aS)-2-fluorotetrahydro-1H-pyrrolizin-7a(5H)-yl)methoxy-d2)pyrido[4,3-d]pyrimidin-4-yl)-5-oxa-2-azabicyclo[5.1.0]octane], the IC50 was less than 50 nM.

On to `[2H]C([2H])(F)Oc1c(F)ccc2cncc(-c3ncc4c(N5CCOC[C@H]6[C@H](F)[C@H]65)nc(OC([2H])([2H])[C@@]56CCCN5C[C@H](F)C6)nc4c3F)c12` [Example 127, (1S,7S,8S)-8-Fluoro-2-(8-fluoro-7-(6-fluoro-5-(fluoromethoxy-d2)isoquinolin-4-yl)-2-(((2R,7aS)-2-fluorotetrahydro-1H-pyrrolizin-7a(5H)-yl)methoxy-d2)pyrido[4,3-d]pyrimidin-4-yl)-5-oxa-2-azabicyclo[5.1.0]octane], for which the half-maximal inhibitory concentration (IC50) fell in the range of 500 to 10000 nM. In turn, `[2H]C([2H])(F)Oc1c(F)c(F)c(F)c2cc(N)cc(-c3ncc4c(N5CCOC[C@H]6[C@H](F)[C@H]65)nc(OC([2H])([2H])[C@@]56CCCN5C[C@H](F)C6)nc4c3F)c12` [Example 128, 6,7,8-trifluoro-4-(8-fluoro-4-((1S,7S,8S)-8-fluoro-5-oxa-2-azabicyclo[5.1.0]octan-2-yl)-2-(((2R,7aS)-2-fluorotetrahydro-1H-pyrrolizin-7a(5H)-yl)methoxy-d2)pyrido[4,3-d]pyrimidin-7-yl)-5-(fluoromethoxy-d2)naphthalen-2-amine] returned an IC50 of less than 50 nM. Under `C#Cc1c(F)ccc2cccc(-c3ncc4c(N5CCOC[C@H]6[C@H](F)[C@H]65)nc(OC[C@@]56CCCN5C/C(=C/F)C6)nc4c3F)c12` [Example 129, (1S,7S,8S)-2-(7-(8-Ethynyl-7-fluoronaphthalen-1-yl)-8-fluoro-2-(((S,E)-2-(fluoromethylene)tetrahydro-1H-pyrrolizin-7a(5H)-yl)methoxy)pyrido[4,3-d]pyrimidin-4-yl)-8-fluoro-5-oxa-2-azabicyclo[5.1.0]octane] stands less than 50 nM. Consider `C#Cc1c(F)ccc2cccc(-c3ncc4c(N5CCOC[C@H]6[C@H](F)[C@H]65)nc(OC[C@@]56CCCN5C/C(=C\F)C6)nc4c3F)c12` [Example 130, (1S,7S,8S)-2-(7-(8-Ethynyl-7-fluoronaphthalen-1-yl)-8-fluoro-2-(((S,Z)-2-(fluoromethylene)tetrahydro-1H-pyrrolizin-7a(5H)-yl)methoxy)pyrido[4,3-d]pyrimidin-4-yl)-8-fluoro-5-oxa-2-azabicyclo[5.1.0]octane], for which the IC50 is less than 50 nM.

In turn, `[2H]C([2H])([2H])Oc1c(F)cc(F)c2cc(N)cc(-c3ncc4c(N5CCOC[C@H]6[C@H](F)[C@H]65)nc(OC([2H])([2H])[C@@]56CCCN5C[C@H](F)C6)nc4c3F)c12` [Example 131, 6,8-difluoro-4-(8-fluoro-4-((1S,7S,8S)-8-fluoro-5-oxa-2-azabicyclo[5.1.0]octan-2-yl)-2-(((2R,7aS)-2-fluorotetrahydro-1H-pyrrolizin-7a(5H)-yl)methoxy-d2)pyrido[4,3-d]pyrimidin-7-yl)-5-(methoxy-d3)naphthalen-2-amine] yielded an IC50 of less than 50 nM. In the case of `[2H]C([2H])([2H])Oc1c(F)c(F)c(F)c2cc(N)cc(-c3ncc4c(N5CCOC[C@H]6[C@H](F)[C@H]65)nc(OC[C@@]56CCCN5C/C(=C/F)C6)nc4c3F)c12` [Example 132, 6,7,8-trifluoro-4-(8-fluoro-4-((1S,7S,8S)-8-fluoro-5-oxa-2-azabicyclo[5.1.0]octan-2-yl)-2-(((S,E)-2-(fluoromethylene)tetrahydro-1H-pyrrolizin-7a(5H)-yl)methoxy)pyrido[4,3-d]pyrimidin-7-yl)-5-(methoxy-d3)naphthalen-2-amine], the half-maximal inhibitory concentration (IC50) was less than 50 nM. Take `[2H]C([2H])([2H])Oc1c(F)c(F)c(F)c2cc(N)cc(-c3ncc4c(N5CCOC[C@H]6[C@H](F)[C@H]65)nc(OC[C@@]56CCCN5C/C(=C\F)C6)nc4c3F)c12` [Example 133, 6,7,8-trifluoro-4-(8-fluoro-4-((1S,7S,8S)-8-fluoro-5-oxa-2-azabicyclo[5.1.0]octan-2-yl)-2-(((S,Z)-2-(fluoromethylene)tetrahydro-1H-pyrrolizin-7a(5H)-yl)methoxy)pyrido[4,3-d]pyrimidin-7-yl)-5-(methoxy-d3)naphthalen-2-amine]: the half-maximal inhibitory concentration (IC50) is less than 50 nM. Consider `C#Cc1c(F)ccc2cc(N)cc(-c3ncc4c(N5CCOC[C@H]6[C@H](F)[C@H]65)nc(OC[C@@]56CCCN5CC(=C(F)F)C6)nc4c3F)c12` [Example 134, 4-(2-(((S)-2-(difluoromethylene)tetrahydro-1H-pyrrolizin-7a(5H)-yl)methoxy)-8-fluoro-4-((1S,7S,8S)-8-fluoro-5-oxa-2-azabicyclo[5.1.0]octan-2-yl)pyrido[4,3-d]pyrimidin-7-yl)-5-ethynyl-6-fluoronaphthalen-2-amine], for which the IC50 was less than 50 nM. Under `[2H]C([2H])(F)Oc1c(F)c(F)cc2cncc(-c3ncc4c(N5CCOC[C@H]6[C@H](F)[C@H]65)nc(OC([2H])([2H])[C@@]56CCCN5C[C@H](F)C6)nc4c3F)c12` [Example 135, (1S,7S,8S)-2-(7-(6,7-difluoro-5-(fluoromethoxy-d2)isoquinolin-4-yl)-8-fluoro-2-(((2R,7aS)-2-fluorotetrahydro-1H-pyrrolizin-7a(5H)-yl)methoxy-d2)pyrido[4,3-d]pyrimidin-4-yl)-8-fluoro-5-oxa-2-azabicyclo[5.1.0]octane] stands less than 50 nM; under `[2H]C([2H])([2H])Oc1c(F)c(F)cc2cncc(-c3ncc4c(N5CCOC[C@H]6[C@H](F)[C@H]65)nc(OC([2H])([2H])[C@@]56CCCN5C[C@H](F)C6)nc4c3F)c12` [Example 136, (1S,7S,8S)-2-(7-(6,7-difluoro-5-(methoxy-d3)isoquinolin-4-yl)-8-fluoro-2-(((2R,7aS)-2-fluorotetrahydro-1H-pyrrolizin-7a(5H)-yl)methoxy-d2)pyrido[4,3-d]pyrimidin-4-yl)-8-fluoro-5-oxa-2-azabicyclo[5.1.0]octane], 50 to 500 nM; under `[2H]C([2H])(F)Oc1c(F)cc(F)c2cc(N)cc(-c3ncc4c(N5CCOC[C@H]6[C@H](F)[C@H]65)nc(OC([2H])([2H])[C@@]56CCCN5C[C@H](F)C6)nc4c3F)c12` [Example 139, 6,8-difluoro-4-(8-fluoro-4-((1S,7S,8S)-8-fluoro-5-oxa-2-azabicyclo[5.1.0]octan-2-yl)-2-(((2R,7aS)-2-fluorotetrahydro-1H-pyrrolizin-7a(5H)-yl)methoxy-d2)pyrido[4,3-d]pyrimidin-7-yl)-5-(fluoromethoxy-d2)naphthalen-2-amine], less than 50 nM. For `[2H]C([2H])([2H])Oc1c(F)cc(F)c2cccc(-c3ncc4c(N5CCCC[C@H]6[C@H](F)[C@H]65)nc(OC([2H])([2H])[C@@]56CCCN5C[C@H](F)C6)nc4c3F)c12` [Example 140, 7-(5,7-difluoro-8-(methoxy-d3)naphthalen-1-yl)-8-fluoro-4-((1S,7R,8S)-8-fluoro-2-azabicyclo[5.1.0]octan-2-yl)-2-(((2R,7aS)-2-fluorotetrahydro-1H-pyrrolizin-7a(5H)-yl)methoxy-d2)pyrido[4,3-d]pyrimidine] the value was 50 to 500 nM; for `[2H]C([2H])([2H])Oc1c(F)cc(F)c2cc(N)cc(-c3ncc4c(N5CCCC[C@H]6[C@H](F)[C@H]65)nc(OC([2H])([2H])[C@@]56CCCN5C[C@H](F)C6)nc4c3F)c12` [Example 141, 6,8-difluoro-4-(8-fluoro-4-((1S,7R,8S)-8-fluoro-2-azabicyclo[5.1.0]octan-2-yl)-2-(((2R,7aS)-2-fluorotetrahydro-1H-pyrrolizin-7a(5H)-yl)methoxy-d2)pyrido[4,3-d]pyrimidin-7-yl)-5-(methoxy-d3)naphthalen-2-amine], less than 50 nM; for `[2H]C([2H])([2H])Oc1c(F)c(F)c(F)c2cc(N)cc(-c3ncc4c(N5CCOC[C@H]6[C@H](F)[C@H]65)nc(OC[C@@]56CCCN5CC(=C(F)F)C6)nc4c3F)c12` [Example 142, 4-(2-(((S)-2-(difluoromethylene)tetrahydro-1H-pyrrolizin-7a(5H)-yl)methoxy)-8-fluoro-4-((1S,7S,8S)-8-fluoro-5-oxa-2-azabicyclo[5.1.0]octan-2-yl)pyrido[4,3-d]pyrimidin-7-yl)-6,7,8-trifluoro-5-(methoxy-d3)naphthalen-2-amine], less than 50 nM. For `C#Cc1c(F)ccc2cccc(-c3ncc4c(N5CCOC[C@H]6[C@H](F)[C@H]65)nc(OC[C@@]56CCCN5CC(=C)C6)nc4c3F)c12` [Example 143, (1S,7S,8S)-2-(7-(8-ethynyl-7-fluoronaphthalen-1-yl)-8-fluoro-2-(((S)-2-methylenetetrahydro-1H-pyrrolizin-7a(5H)-yl)methoxy)pyrido[4,3-d]pyrimidin-4-yl)-8-fluoro-5-oxa-2-azabicyclo[5.1.0]octane] the value was less than 50 nM; for `[2H]C([2H])(F)Oc1c(F)c(F)cc2cc(N)cc(-c3ncc4c(N5CCOC[C@H]6[C@H](F)[C@H]65)nc(OC[C@@]56CCCN5CC(=C)C6)nc4c3F)c12` [Example 144, 6,7-difluoro-4-(8-fluoro-4-((1S,7S,8S)-8-fluoro-5-oxa-2-azabicyclo[5.1.0]octan-2-yl)-2-(((S)-2-methylenetetrahydro-1H-pyrrolizin-7a(5H)-yl)methoxy)pyrido[4,3-d]pyrimidin-7-yl)-5-(fluoromethoxy-d2)naphthalen-2-amine], less than 50 nM.
